In PubChem BioAssay (NCI):
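Values below derive from 48-hour exposures of cells grown in 96-well plates, with endpoints linearly interpolated between the two concentrations bracketing the appropriate inhibition level. At the TGI there is no net growth.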

Tests used:
Experiment in all cases: growth of human tumour cells (NCI), 48 h
786-0 renal = test system: 786-0 renal
A498 renal = test system: A498 renal
A549 NSCLC = test system: A549 NSCLC
ACHN renal = test system: ACHN renal
CAKI-1 renal = test system: CAKI-1 renal
CCRF-CEM leukemia = test system: CCRF-CEM leukemia
COLO 205 colon = test system: COLO 205 colon
DLD-1 colon = test system: DLD-1 colon
DMS 114 small cell lung = test system: DMS 114 small cell lung
DMS 273 small cell lung = test system: DMS 273 small cell lung
EKVX NSCLC = test system: EKVX NSCLC
HCC-2998 colon = test system: HCC-2998 colon
HCT-116 colon = test system: HCT-116 colon
HCT-15 colon = test system: HCT-15 colon
HOP-18 NSCLC = test system: HOP-18 NSCLC
HOP-62 NSCLC = test system: HOP-62 NSCLC
HOP-92 NSCLC = test system: HOP-92 NSCLC
HT29 colon = test system: HT29 colon
IGROV1 ovarian = test system: IGROV1 ovarian
K-562 leukemia = test system: K-562 leukemia
KM12 colon = test system: KM12 colon
KM20L2 colon = test system: KM20L2 colon
LOX IMVI melanoma = test system: LOX IMVI melanoma
LXFL 529 NSCLC = test system: LXFL 529 NSCLC
M14 melanoma = test system: M14 melanoma
M19-MEL melanoma = test system: M19-MEL melanoma
MALME-3M melanoma = test system: MALME-3M melanoma
MOLT-4 leukemia = test system: MOLT-4 leukemia
NCI-H226 lung = test system: NCI-H226 lung
NCI-H23 lung = test system: NCI-H23 lung
NCI-H460 lung = test system: NCI-H460 lung
NCI-H522 lung = test system: NCI-H522 lung
OVCAR-3 ovarian = test system: OVCAR-3 ovarian
OVCAR-4 ovarian = test system: OVCAR-4 ovarian
OVCAR-5 ovarian = test system: OVCAR-5 ovarian
OVCAR-8 ovarian = test system: OVCAR-8 ovarian
RXF 393 renal = test system: RXF 393 renal
SF-268 CNS = test system: SF-268 CNS
SF-295 CNS = test system: SF-295 CNS
SF-539 CNS = test system: SF-539 CNS
SK-MEL-2 melanoma = test system: SK-MEL-2 melanoma
SK-MEL-28 melanoma = test system: SK-MEL-28 melanoma
SK-MEL-5 melanoma = test system: SK-MEL-5 melanoma
SK-OV-3 ovarian = test system: SK-OV-3 ovarian
SN12C renal = test system: SN12C renal
SNB-19 CNS = test system: SNB-19 CNS
SNB-75 CNS = test system: SNB-75 CNS
SNB-78 CNS = test system: SNB-78 CNS
SW-620 colon = test system: SW-620 colon
TK-10 renal = test system: TK-10 renal
U251 CNS = test system: U251 CNS
UACC-257 melanoma = test system: UACC-257 melanoma
UACC-62 melanoma = test system: UACC-62 melanoma
UO-31 renal = test system: UO-31 renal
XF 498 CNS = test system: XF 498 CNS

`Cc1cc(Cl)cc2c1NC(=O)C2=O` (tested in a mixture with another compound) was tested, and the TGI (786-0 renal) was > 100 µM, the TGI (A498 renal) was > 100 µM and the TGI (A549 NSCLC) was > 100 µM. The TGI (ACHN renal) was > 100 µM, the TGI (CAKI-1 renal) was > 100 µM and the TGI (CCRF-CEM leukemia) was 44.9 µM. For the same compound, the TGI (COLO 205 colon) was > 100 µM, the TGI (DLD-1 colon) was > 100 µM and the TGI (DMS 114 small cell lung) was 72.1 µM. For the same compound, the TGI (DMS 273 small cell lung) was > 100 µM, the TGI (EKVX NSCLC) was > 100 µM and the TGI (HCC-2998 colon) was > 100 µM. For the same compound, the TGI (HCT-116 colon) was > 100 µM, the TGI (HCT-15 colon) was > 100 µM and the TGI (HOP-18 NSCLC) was > 100 µM. For the same compound, the TGI (HOP-62 NSCLC) was > 100 µM, the TGI (HOP-92 NSCLC) was > 100 µM and the TGI (HT29 colon) was > 100 µM. The TGI (IGROV1 ovarian) was > 100 µM, the TGI (K-562 leukemia) was > 100 µM and the TGI (KM12 colon) was > 100 µM. For the same compound, the TGI (KM20L2 colon) was > 100 µM, the TGI (LOX IMVI melanoma) was 33.2 µM and the TGI (LXFL 529 NSCLC) was > 100 µM. For the same compound, the TGI (M14 melanoma) was > 100 µM, the TGI (M19-MEL melanoma) was 28.8 µM and the TGI (MALME-3M melanoma) was > 100 µM. For the same compound, the TGI (MOLT-4 leukemia) was 54.7 µM, the TGI (NCI-H226 lung) was > 100 µM and the TGI (NCI-H23 lung) was > 100 µM. For the same compound, the TGI (NCI-H460 lung) was > 100 µM, the TGI (NCI-H522 lung) was 86 µM and the TGI (OVCAR-3 ovarian) was > 100 µM. The TGI (OVCAR-4 ovarian) was > 100 µM, the TGI (OVCAR-5 ovarian) was > 100 µM and the TGI (OVCAR-8 ovarian) was > 100 µM. The TGI (RXF 393 renal) was > 100 µM, the TGI (SF-268 CNS) was > 100 µM and the TGI (SF-295 CNS) was > 100 µM. The TGI (SF-539 CNS) was > 100 µM, the TGI (SK-MEL-2 melanoma) was > 100 µM and the TGI (SK-MEL-28 melanoma) was > 100 µM. For the same compound, the TGI (SK-MEL-5 melanoma) was > 100 µM, the TGI (SK-OV-3 ovarian) was > 100 µM and the TGI (SN12C renal) was > 100 µM. For the same compound, the TGI (SNB-19 CNS) was > 100 µM, the TGI (SNB-75 CNS) was > 100 µM and the TGI (SNB-78 CNS) was 91.1 µM. For the same compound, the TGI (SW-620 colon) was > 100 µM, the TGI (TK-10 renal) was > 100 µM and the TGI (U251 CNS) was > 100 µM. For the same compound, the TGI (UACC-257 melanoma) was 51.1 µM, the TGI (UACC-62 melanoma) was 41.6 µM and the TGI (UO-31 renal) was > 100 µM. For the same compound, the TGI (XF 498 CNS) was 62.4 µM.
